Reference: ChEMBL document CHEMBL1201862, “PubChem BioAssay data set” (2004)
Activity calls are given as the source filed them.

Columns and labels:
Fatty acid synthase = Fatty acid synthase (Homo sapiens, UniProt P49327); assay: FAS thioesterase domain inhibitors, dose response, biochemical, kinetic fluorescence intensity (AID 624326); assay type: functional;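 note: rate of fluorescence rise from hydrolysis of a fluorogenic O-methyl fluorescein ester substrate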
[1] = target: Voltage-dependent T-type calcium channel subunit alpha-1H (Homo sapiens, UniProt O95180); assay type: functional;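 note: channel activity triggered by adding a high calcium stimulation buffer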
Sequence of Voltage-dependent T-type calcium channel subunit alpha-1H (O95180 whole entry): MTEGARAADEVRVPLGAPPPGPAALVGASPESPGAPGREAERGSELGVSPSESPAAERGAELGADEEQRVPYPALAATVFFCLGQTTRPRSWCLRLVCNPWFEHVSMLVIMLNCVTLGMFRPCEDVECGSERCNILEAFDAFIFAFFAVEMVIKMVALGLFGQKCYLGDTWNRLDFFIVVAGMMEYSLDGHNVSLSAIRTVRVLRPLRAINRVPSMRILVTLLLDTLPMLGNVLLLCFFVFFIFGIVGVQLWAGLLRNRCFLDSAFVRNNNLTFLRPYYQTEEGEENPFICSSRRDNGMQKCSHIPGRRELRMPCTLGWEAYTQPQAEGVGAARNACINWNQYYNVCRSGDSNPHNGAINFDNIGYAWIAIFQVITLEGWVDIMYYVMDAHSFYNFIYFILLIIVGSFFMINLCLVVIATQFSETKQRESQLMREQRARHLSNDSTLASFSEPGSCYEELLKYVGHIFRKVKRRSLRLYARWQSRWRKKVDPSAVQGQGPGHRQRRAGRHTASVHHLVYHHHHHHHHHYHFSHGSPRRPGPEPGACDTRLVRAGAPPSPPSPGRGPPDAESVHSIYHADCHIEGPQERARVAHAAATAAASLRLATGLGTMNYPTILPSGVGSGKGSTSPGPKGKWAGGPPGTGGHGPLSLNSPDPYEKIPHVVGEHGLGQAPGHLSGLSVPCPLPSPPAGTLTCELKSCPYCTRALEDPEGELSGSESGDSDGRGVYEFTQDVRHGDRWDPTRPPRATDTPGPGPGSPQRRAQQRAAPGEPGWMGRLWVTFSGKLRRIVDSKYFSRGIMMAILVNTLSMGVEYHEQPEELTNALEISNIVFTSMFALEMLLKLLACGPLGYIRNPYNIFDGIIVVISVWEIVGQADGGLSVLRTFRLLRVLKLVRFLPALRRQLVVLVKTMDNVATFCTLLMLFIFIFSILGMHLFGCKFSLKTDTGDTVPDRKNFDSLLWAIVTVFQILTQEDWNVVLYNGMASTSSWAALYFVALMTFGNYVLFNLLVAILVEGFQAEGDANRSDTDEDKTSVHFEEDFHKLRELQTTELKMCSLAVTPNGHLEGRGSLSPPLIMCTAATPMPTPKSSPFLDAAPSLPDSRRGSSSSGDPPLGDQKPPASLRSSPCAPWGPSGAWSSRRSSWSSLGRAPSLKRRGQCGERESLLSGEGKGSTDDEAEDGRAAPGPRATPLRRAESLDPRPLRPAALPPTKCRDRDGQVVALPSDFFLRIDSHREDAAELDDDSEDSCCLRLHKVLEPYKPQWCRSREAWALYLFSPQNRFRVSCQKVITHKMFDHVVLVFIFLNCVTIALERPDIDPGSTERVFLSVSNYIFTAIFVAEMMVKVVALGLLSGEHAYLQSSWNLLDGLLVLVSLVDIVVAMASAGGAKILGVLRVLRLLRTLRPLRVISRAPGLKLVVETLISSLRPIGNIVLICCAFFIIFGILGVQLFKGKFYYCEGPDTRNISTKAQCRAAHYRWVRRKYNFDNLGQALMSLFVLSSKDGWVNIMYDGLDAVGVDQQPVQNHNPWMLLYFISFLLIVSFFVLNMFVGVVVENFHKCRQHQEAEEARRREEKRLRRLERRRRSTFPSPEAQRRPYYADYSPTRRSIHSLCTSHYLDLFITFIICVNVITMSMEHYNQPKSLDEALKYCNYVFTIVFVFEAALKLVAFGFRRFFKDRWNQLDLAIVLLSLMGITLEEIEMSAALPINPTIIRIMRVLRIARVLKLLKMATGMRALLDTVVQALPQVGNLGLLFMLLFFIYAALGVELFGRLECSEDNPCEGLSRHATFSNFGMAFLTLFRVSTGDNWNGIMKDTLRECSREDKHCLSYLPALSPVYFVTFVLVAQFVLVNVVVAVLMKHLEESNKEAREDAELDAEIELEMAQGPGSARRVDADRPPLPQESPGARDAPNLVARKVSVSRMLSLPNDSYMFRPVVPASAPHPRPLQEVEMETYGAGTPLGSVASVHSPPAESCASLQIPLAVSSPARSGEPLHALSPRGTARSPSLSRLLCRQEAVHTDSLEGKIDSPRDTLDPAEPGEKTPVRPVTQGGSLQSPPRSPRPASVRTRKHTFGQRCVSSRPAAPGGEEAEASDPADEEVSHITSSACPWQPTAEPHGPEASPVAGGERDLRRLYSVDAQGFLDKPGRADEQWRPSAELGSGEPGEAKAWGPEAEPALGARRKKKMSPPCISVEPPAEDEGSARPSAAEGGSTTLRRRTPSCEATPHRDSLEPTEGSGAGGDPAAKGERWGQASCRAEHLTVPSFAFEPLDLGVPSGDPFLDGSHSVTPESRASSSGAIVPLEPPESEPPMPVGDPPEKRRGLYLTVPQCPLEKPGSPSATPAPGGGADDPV

Genome polyprotein = Genome polyprotein (dengue virus type 2, UniProt P29990); assay: Dengue-2 NS5 methyltransferase inhibitors, primary screen, biochemical, confirmation dose response (AID 588689); assay type: functional
Sequence of Genome polyprotein (P29990 2492-3391 limits assumed): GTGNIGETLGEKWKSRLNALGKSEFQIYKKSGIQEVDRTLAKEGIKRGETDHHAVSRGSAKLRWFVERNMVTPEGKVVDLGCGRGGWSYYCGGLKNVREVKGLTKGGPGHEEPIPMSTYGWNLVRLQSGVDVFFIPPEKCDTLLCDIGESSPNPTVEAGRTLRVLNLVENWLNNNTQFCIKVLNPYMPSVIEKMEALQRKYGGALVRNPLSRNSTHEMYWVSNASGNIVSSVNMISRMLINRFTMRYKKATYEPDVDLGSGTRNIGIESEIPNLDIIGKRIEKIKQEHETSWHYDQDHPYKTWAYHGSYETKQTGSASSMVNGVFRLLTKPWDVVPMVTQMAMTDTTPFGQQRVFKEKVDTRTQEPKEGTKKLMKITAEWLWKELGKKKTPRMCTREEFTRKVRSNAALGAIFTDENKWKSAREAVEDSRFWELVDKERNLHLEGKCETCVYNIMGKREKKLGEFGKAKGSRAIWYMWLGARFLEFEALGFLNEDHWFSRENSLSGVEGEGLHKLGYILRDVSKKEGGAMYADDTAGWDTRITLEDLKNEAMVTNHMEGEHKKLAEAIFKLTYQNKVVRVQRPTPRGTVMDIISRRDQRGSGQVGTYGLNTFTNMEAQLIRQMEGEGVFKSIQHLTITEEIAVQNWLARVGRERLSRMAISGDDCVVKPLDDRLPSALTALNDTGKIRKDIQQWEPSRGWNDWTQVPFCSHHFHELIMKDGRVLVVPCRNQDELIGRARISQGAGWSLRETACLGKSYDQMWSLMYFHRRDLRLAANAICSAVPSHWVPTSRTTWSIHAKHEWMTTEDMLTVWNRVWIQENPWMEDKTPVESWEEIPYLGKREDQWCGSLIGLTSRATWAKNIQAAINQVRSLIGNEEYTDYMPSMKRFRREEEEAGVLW

Leucine aminopeptidase = target: T1, Leucine aminopeptidase (Plasmodium falciparum 3D7, UniProt Q8IL11); assay: P. falciparum M17LAP inhibitors, primary screen, biochemical, fluorogenic H-Leu-NHMec substrate, 1536-well (AID 1619); assay type: functional
T1 sequence (Q8IL11 whole entry): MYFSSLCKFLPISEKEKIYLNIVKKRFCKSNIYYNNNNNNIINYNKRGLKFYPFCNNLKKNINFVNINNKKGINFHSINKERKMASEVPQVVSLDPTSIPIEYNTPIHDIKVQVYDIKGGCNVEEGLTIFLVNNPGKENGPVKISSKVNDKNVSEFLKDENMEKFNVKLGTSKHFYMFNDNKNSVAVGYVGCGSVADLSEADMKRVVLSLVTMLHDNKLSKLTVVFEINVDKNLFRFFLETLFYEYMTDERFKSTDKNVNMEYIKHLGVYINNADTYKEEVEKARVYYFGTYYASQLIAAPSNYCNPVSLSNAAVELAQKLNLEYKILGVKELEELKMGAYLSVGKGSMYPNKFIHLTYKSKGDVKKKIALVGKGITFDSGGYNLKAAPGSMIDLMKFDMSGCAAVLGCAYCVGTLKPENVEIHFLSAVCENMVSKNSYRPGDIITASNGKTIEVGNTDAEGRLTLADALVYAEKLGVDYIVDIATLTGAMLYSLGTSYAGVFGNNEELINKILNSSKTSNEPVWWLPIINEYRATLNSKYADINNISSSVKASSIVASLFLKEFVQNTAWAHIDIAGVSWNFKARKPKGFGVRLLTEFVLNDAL

Cytochrome P450 2C9 = Cytochrome P450 2C9 (Homo sapiens, UniProt P11712)
Sequence of Cytochrome P450 2C9 (P11712 whole entry): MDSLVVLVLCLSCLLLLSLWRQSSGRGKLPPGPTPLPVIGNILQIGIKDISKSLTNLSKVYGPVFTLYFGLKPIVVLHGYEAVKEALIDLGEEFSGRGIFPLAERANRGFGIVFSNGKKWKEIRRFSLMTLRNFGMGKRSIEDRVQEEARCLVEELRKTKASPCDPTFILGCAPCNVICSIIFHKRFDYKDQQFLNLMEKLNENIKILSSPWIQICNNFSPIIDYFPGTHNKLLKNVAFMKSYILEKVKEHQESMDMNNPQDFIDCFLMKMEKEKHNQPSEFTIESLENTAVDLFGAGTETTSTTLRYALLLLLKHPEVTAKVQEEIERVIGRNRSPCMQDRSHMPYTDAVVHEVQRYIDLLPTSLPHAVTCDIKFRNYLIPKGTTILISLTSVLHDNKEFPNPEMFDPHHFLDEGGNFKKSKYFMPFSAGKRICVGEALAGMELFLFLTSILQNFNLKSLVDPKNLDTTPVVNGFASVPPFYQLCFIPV

Cytochrome P450 2D6 = Cytochrome P450 2D6 (Homo sapiens, UniProt P10635);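 note: CYP2D6 member of a cytochrome P450 panel assay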
Sequence of Cytochrome P450 2D6 (P10635 whole entry): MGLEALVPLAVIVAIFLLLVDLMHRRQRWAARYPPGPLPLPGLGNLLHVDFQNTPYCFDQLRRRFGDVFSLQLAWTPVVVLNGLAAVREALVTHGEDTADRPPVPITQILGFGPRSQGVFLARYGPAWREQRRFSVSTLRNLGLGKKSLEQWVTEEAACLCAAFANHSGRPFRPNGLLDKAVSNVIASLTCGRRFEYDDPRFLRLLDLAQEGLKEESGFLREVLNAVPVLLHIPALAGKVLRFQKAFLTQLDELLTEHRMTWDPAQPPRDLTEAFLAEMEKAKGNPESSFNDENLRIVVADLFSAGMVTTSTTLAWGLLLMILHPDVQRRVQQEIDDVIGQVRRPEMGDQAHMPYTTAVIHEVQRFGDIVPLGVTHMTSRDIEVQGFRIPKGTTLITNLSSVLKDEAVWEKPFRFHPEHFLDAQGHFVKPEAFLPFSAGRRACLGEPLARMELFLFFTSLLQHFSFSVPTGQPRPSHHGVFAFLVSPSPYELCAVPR

[2] = target: Induced myeloid leukemia cell differentiation protein Mcl-1 (Homo sapiens, UniProt Q07820); assay type: functional
Sequence of Induced myeloid leukemia cell differentiation protein Mcl-1 (Q07820 whole entry): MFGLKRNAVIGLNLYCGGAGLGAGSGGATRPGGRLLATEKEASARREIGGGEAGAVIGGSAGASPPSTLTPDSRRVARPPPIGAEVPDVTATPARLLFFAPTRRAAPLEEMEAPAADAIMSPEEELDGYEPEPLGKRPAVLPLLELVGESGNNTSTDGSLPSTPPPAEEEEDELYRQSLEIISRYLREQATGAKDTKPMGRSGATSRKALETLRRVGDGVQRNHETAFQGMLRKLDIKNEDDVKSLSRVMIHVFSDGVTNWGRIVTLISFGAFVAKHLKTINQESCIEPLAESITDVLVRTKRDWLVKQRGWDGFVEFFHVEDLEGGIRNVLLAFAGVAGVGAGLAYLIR

[3] = cytotoxicity toward NIH3T3 fibroblasts, dose response, counter-screen, cell-based, ATP luminescence, mouse fibroblasts (AID 2010); assay type: functional;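 note: cells exposed to compound for about 90 hours before reading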
[4] = LGR2 antagonists, dose response, cell-based, HEK293, CRE-luciferase reporter, cherry pick, set 2 (AID 743343); assay type: functional;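 note: transfected cells were stimulated with diluted bursicon conditioned medium after compound addition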
[5] = inhibitors of intracellular T. cruzi replication, confirmation, NIH3T3 host cells, beta-gal luminescence (AID 2044); assay type: functional, cell-based;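 note: intracellular parasites grown in NIH/3T3 mouse fibroblasts as host cells; luminescent beta-galactosidase reporter signal from transgenic T. cruzi replicating inside host cells; inhibitors lower the luminescence signal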
[6] = MC4R antagonists, dose response, counter-screen for LGR2 antagonist project, cell-based, plate reader, cherry pick (AID 743444); assay type: functional;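 note: transfected HEK 293 cells stimulated with alpha-MSH peptide; potency of inhibitors of the alpha-MSH evoked signal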
[7] = Luminescence Cell-Based Dose Retest to Confirm Inhibitors of Cancer Stem Cells. [Related pubchem assays (depositor defined):AID2717, AID2721]; assay type: functional; details: Homo sapiens
Cytochrome P450 1A2 = target: T2, Cytochrome P450 1A2 (Homo sapiens, UniProt P05177);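 note: PubChem cytochrome P450 panel assay, CYP1A2 panel member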
T2 sequence (P05177 whole entry): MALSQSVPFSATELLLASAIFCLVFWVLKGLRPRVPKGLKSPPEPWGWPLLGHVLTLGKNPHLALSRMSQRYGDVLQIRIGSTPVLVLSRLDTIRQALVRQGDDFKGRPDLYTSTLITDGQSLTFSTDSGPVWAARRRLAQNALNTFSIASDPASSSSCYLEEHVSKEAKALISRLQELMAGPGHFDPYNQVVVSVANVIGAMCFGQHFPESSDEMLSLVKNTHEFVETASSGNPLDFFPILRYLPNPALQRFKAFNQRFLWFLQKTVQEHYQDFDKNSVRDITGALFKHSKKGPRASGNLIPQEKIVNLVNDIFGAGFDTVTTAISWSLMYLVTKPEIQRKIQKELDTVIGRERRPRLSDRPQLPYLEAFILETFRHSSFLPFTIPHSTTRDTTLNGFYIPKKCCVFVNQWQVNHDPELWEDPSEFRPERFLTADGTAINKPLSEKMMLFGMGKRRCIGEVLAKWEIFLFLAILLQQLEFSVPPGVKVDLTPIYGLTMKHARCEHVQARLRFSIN

[8] = cytotoxicity in KRAS-transformed pancreatic duct cells, primary screen, cell-based, fluorescence, HTS (AID 431); assay type: functional; details: Homo sapiens;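 note: cell line used: HPDE-C7K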
[9] = cytotoxicity in HPDE-C7 cells, cell-based, fluorescence, HTS (AID 430); assay type: functional; details: Homo sapiens
[10] = target: T3, Endoribonuclease toxin MazF (Escherichia coli K-12, UniProt P0AE70); assay: MazF toxin RNase activators, dose response, biochemical, fluorescence, single-stranded RNA substrate, uHTS hits (AID 588481); assay type: functional
T3 sequence (P0AE70 whole entry): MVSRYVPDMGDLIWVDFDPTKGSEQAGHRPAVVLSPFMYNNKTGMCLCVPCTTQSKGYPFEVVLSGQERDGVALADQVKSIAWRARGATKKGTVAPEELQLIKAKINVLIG

[11] = target: T4, RNA-binding protein pos-1 (Caenorhabditis elegans, UniProt G5EF15); assay: inhibitors of POS-1/mex-3 RNA binding, dose response, biochemical, fluorescence polarization (AID 1964);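 note: purified POS-1 fused to maltose binding protein made in E. coli; potency of compounds blocking POS-1 binding to fluorescent RNA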
T4 sequence (G5EF15 whole entry): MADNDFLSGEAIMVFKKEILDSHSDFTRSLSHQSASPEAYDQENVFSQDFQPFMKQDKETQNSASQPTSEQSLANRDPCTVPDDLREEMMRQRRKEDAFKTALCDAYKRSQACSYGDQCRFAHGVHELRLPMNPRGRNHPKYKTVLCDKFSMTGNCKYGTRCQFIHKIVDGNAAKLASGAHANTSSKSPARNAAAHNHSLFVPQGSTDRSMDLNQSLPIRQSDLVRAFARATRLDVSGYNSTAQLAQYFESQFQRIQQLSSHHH

[12] = target: T3, Endoribonuclease toxin MazF; assay: fluorescent RNA oligo signal without MazF, dose response, counter-screen for MazEF activator project, biochemical, fluorescence, single-stranded RNase substrate (AID 588502); assay type: functional
[13] = growth suppression of beta-catenin-knockout colon cells, dose response, cell-based, HCT116, human colon tumor (AID 1045); assay type: functional;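 note: HCT116 colon tumor cells with beta catenin knocked out; cells exposed to compound for 60 hours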
[14] = growth suppression of PTEN-null colon cells, dose response, cell-based, HCT116 PTEN knockout (AID 1047); assay type: functional;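 note: HCT116 colon tumor cells with PTEN knocked out; cells exposed to compound for 60 hours before readout; potency for loss of cell viability measured by luminescence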
[15] = target: T5, Zinc finger protein mex-5 (Caenorhabditis elegans, UniProt Q9XUB2); assay: MEX-5/TCR-2 RNA interaction inhibitors, dose response, biochemical, C. elegans, fluorescence polarization (AID 1960)
T5 sequence (Q9XUB2 whole entry): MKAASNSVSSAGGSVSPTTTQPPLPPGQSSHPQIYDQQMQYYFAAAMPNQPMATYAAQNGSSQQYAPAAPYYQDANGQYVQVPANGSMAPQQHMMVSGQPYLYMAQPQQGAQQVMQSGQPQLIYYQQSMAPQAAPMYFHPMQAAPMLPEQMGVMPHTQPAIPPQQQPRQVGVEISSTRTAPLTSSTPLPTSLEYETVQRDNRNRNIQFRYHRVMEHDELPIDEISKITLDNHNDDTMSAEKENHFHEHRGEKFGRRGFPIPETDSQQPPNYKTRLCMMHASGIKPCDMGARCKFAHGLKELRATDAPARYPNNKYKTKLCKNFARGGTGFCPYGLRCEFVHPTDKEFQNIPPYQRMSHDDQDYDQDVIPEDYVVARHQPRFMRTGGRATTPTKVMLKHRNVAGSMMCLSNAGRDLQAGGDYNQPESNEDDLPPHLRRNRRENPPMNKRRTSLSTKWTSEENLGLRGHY

CC(C)(C)OC(=O)NCCCC[C@H](NC(=O)c1[nH]cnc1C(=O)NC1CCN(C(=O)OC(C)(C)C)CC1)C(=O)OC(C)(C)C
IC50 (Fatty acid synthase): 1.6 µM (active)

CN(CCOc1ccc(Cl)cc1)c1ccc(S(=O)(=O)N2CCCCC2)cn1
EC50 [1]: 2.82 µM (active)

Cc1cccc(COCC(Cc2ccccc2)N2CCN(C(=O)c3cc(Cl)cc(Cl)c3)CCC2=O)c1 (centres undefined)
EC50 [1]: 3.04 µM (active)

CC(C)(C)C1CCc2c(sc(NC(=O)C3CC=CCC3C(=O)O)c2C#N)C1 (centres undefined)
IC50 (Genome polyprotein): 39.4 µM (active)
IC50 (Leucine aminopeptidase): 11 µM (active)

CS(=O)(=O)Nc1cccc(-c2cc(NCc3cccs3)ncn2)c1
AC50 (Cytochrome P450 2C9): inconclusive
AC50 (Cytochrome P450 2D6): 20 µM (inconclusive)

CC1CCCCC12NC(=O)N(CC(=O)Nc1sc3c(c1C(N)=O)CCC3)C2=O (centres undefined)
IC50 [2]: 3.5 µM (active)

O=C1c2ccccc2C(Nc2ccc(F)c(Cl)c2)N1Cc1ccco1 (centres undefined)
EC50 [1]: 3.88 µM (active)

CC(C)Oc1ccc(CNC(=O)CC(c2ccccc2)c2cc(Cl)ccc2O)cc1 (centres undefined)
EC50 [3]: > 30 µM (not active)
AC50 [4]: 28 µM (active)
EC50 [5]: 2.17 µM (active)
AC50 [6]: 26.7 µM (active)
AC50 [7]: 5.73 µM (active)
AC50 (Cytochrome P450 1A2): 28.2 µM (inconclusive)

CCCC1(CCC)C(=O)N=C(NCc2ccccc2)NC1=O
EC50 [8]: 13.4 µM (active)
EC50 [9]: 14.4 µM (active)

COc1cc(-c2nnc(SCC3(c4ccccc4)OCCO3)o2)cc(OC)c1OC
AC50 (Cytochrome P450 2C9): inconclusive

CCn1c(/C=C/c2c(C)[nH]c3ccccc23)nc2ccccc2c1=O
EC50 [10]: > 99 µM (inactive)
EC50 [11]: > 300 µM (not active)
EC50 [12]: > 99 µM (inactive)
EC50 [13]: 5.59 µM (active)
EC50 [14]: 7.1 µM (active)
EC50 [15]: > 300 µM (inconclusive)
